In patent US20150105252A1, “SUBSTITUTED PYRAZOLES AS HERBICIDES” (E I DU PONT DE NEMOURS AND COMPANY, priority 2013, published 2015):

How the values were obtained:
fall panicum [1] = test: Test F preemergence; assay type: in vivo, Panicum dichotomiflorum
Excerpt: (§1) Seeds of plant species selected from corn (Zea mays), soybean (Glycine max), velvetleaf (Abutilon theophrasti), lambsquarters (Chenopodium album), wild poinsettia (Euphorbia heterophylla), pigweed, palmer (palmer pigweed, Amaranthus palmeri), common waterhemp (Amaranthus rudis), surinam grass (Brachiaria decumbens), large crabgrass (Digitaria sanguinalis), crabgrass, Brazil (Brazilian crabgrass, Digitaria horizontalis), fall panicum (Panicum dichotomiflorum), giant foxtail (Setaria faberii), green foxtail (Setaria viridis), goosegrass (Eleusine indica), johnsongrass (Sorghum halepense), common ragweed (Ambrosia elation), barnyardgrass (Echinochloa crus-galli), southern sandbur (Cenchrus echinatus), arrowleaf sida (Sida rhombifolia), Italian ryegrass (Lolium multiflorum), dayflower, VA (Virginia (VA) dayflower, Commelina virginica), field bindweed (Convolvulus arvensis), cocklebur (common cocklebur, Xanthium strumarium), morningglory (Ipomoea coccinea), nightshade (eastern black nightshade, Solanum ptycanthum), kochia (Kochia scoparia), yellow nutsedge (Cyperus esculentus), and hairy beggarticks (Bidens pilosa), were planted into a silt loam soil and treated preemergence with test chemicals formulated in a non-phytotoxic solvent mixture which included a surfactant.
(§2) At the same time, plants from these crop and weed species and also horseweed (Canada horseweed, Conyza canadensis), smartweed (ladysthumb smartweed, Polygonum persicaria), waterhemp_RES1, (ALS & Triazine resistant common waterhemp, Amaranthus rudis), and waterhemp_RES2, (ALS & HPPD resistant common waterhemp, Amaranthus rudis) were treated with postemergence applications of test chemicals formulated in the same manner. Plants ranged in height from 2 to 18 cm for postemergence treatments (1- to 4-leaf stage). Treated plants and controls were maintained in a greenhouse for 14 to 21 days, after which time all species were compared to controls and visually evaluated. Plant response ratings, summarized in Table F, are based on a scale of 0 to 100 where 0 is no effect and 100 is complete control. A dash (-) response means no test result.

common waterhemp = test: Test F postemergence; assay type: in vivo, Amaranthus rudis; settings: Postemergence, scale 0 to 100
Excerpt: as §1, §2

[2] = test system: waterhemp_RES2 (ALS & HPPD resistant common waterhemp); test: Test F postemergence; assay type: in vivo, Amaranthus rudis; settings: Postemergence, scale 0 to 100
Excerpt: as §1, §2

pigweed, palmer = test: Test F postemergence; assay type: in vivo, Amaranthus palmeri; settings: Postemergence, scale 0 to 100
Excerpt: as §1, §2

hairy beggarticks = test: Test F postemergence; assay type: in vivo, Bidens pilosa; settings: Postemergence, scale 0 to 100
Excerpt: as §1, §2

Italian ryegrass = test: Test F postemergence; assay type: in vivo, Lolium multiflorum; settings: Postemergence, scale 0 to 100
Excerpt: as §1, §2

corn = test: Test F postemergence; assay type: in vivo, Zea mays; settings: Postemergence, scale 0 to 100
Excerpt: as §1, §2

southern sandbur = test: Test F postemergence; assay type: in vivo, Cenchrus echinatus; settings: Postemergence, scale 0 to 100
Excerpt: as §1, §2

smartweed = test: Test F postemergence; assay type: in vivo, Polygonum persicaria; settings: Postemergence, scale 0 to 100
Excerpt: as §1, §2

dayflower, VA = test: Test F postemergence; assay type: in vivo, Commelina virginica; settings: Postemergence, scale 0 to 100
Excerpt: as §1, §2

fall panicum [3] = test: Test F postemergence; assay type: in vivo, Panicum dichotomiflorum; settings: Postemergence, scale 0 to 100
Excerpt: as §1, §2

Russian thistle = test: Test C preemergence; assay type: in vivo, Salsola kali
Excerpt: Seeds of plant species selected from blackgrass (Alopecurus myosuroides), ryegrass, Italian (Italian ryegrass, Lolium multiflorum), wheat (winter wheat, Triticum aestivum), galium (catchweed bedstraw, Galium aparine), corn (Zea mays), crabgrass, large (large crabgrass, Digitaria sanguinalis), foxtail, giant (giant foxtail, Setaria faberii), johnsongrass (Sorghum halepense), lambsquarters (Chenopodium album), morningglory (Ipomoea coccinea), nutsedge, yellow (yellow nutsedge, Cyperus esculentus), pigweed (redroot pigweed, Amaranthus retroflexus), ragweed (common ragweed, Ambrosia elation), soybean (Glycine max), barnyardgrass (Echinochloa crus-galli), oilseed rape (Brassica napus), waterhemp (common waterhemp, Amaranthus rudis), oat, wild (wild oat, Avena fatua), kochia (Kochia scoparia), Surinam grass (Brachiaria decumbens), foxtail, green (green foxtail, Setaria viridis), goosegrass (Eleusine indica), bromegrass, downy (downy bromegrass, Bromus tectorum), nightshade (eastern black nightshade, Solanum ptycanthum), cocklebur (common cocklebur, Xanthium strumarium), cupgrass, woolly (woolly cupgrass, Eriochloa villosa), bermudagrass (Cynodon dactylon), sunflower, (common oilseed sunflower, Helianthus annuus), Russian thistle (Salsola kali), and velvetleaf (Abutilon theophrasti) were planted into a blend of loam soil and sand and treated preemergence with test chemicals formulated in a non-phytotoxic solvent mixture which included a surfactant.
At the same time, plants selected from these crop and weed species and also chickweed (common chickweed, Stellaria media), canarygrass (littleseed canarygrass, Phalaris minor), and deadnettle (henbit deadnettle, Lamium amplexicaule), were planted in pots containing Redi-Earth® planting medium (Scotts Company, 14111 Scottslawn Road, Marysville, Ohio 43041) comprising spaghnum peat moss, vermiculite, wetting agent and starter nutrients and treated with postemergence applications of test chemicals formulated in the same manner. Plants ranged in height from 2 to 18 cm (1- to 4-leaf stage) for postemergence treatments. Treated plants and controls were maintained in a greenhouse for 13 to 15 days, after which time all species were compared to controls and visually evaluated. Plant response ratings, summarized in Table C, are based on a scale of 0 to 100 where 0 is no effect and 100 is complete control. A dash (-) response means no test result.

CCCc1cc(C(=O)NC(C)C)nn1Cc1cc(C(F)(F)F)nn1C [Compound 201]
Plant response rating, Fall Panicum (fall panicum [1]; Preemergence, 16 g ai/ha, scale 0 to 100): 85 | Plant response rating, Fall Panicum (fall panicum [1]; Preemergence, 62 g ai/ha, scale 0 to 100): 90 | Plant response rating, Fall Panicum (fall panicum [1]; Preemergence, 125 g ai/ha, scale 0 to 100): 100 | Plant response rating, Fall Panicum (fall panicum [1]; Preemergence, 250 g ai/ha, scale 0 to 100): 100 | Plant response rating, Fall Panicum (fall panicum [1]; preemergence, 16 g ai/ha, scale 0 to 100, 100 is complete control): 0

CCCNC(=O)c1cc(CC)n(Cc2nc(C(F)(F)F)nn2C)n1 [Compound 109]
Plant response rating, Common Waterhemp (common waterhemp; 16 g ai/ha): 50 | Plant response rating, Common Waterhemp (common waterhemp; 31 g ai/ha): 50 | Plant response rating, Common Waterhemp (common waterhemp; 125 g ai/ha): 75 | Plant response rating, Common Waterhemp (common waterhemp; 250 g ai/ha): 80 | Plant response rating, Waterhemp_RES2 ([2]; 16 g ai/ha): 30 | Plant response rating, Waterhemp_RES2 ([2]; 31 g ai/ha): 50 | Plant response rating, Waterhemp_RES2 ([2]; 125 g ai/ha): 60 | Plant response rating, Waterhemp_RES2 ([2]; 250 g ai/ha): 70 | Plant response rating, Pigweed, Palmer (pigweed, palmer; 16 g ai/ha): 30 | Plant response rating, Pigweed, Palmer (pigweed, palmer; 31 g ai/ha): 50 | Plant response rating, Pigweed, Palmer (pigweed, palmer; 125 g ai/ha): 60 | Plant response rating, Pigweed, Palmer (pigweed, palmer; 250 g ai/ha): 70 | Plant response rating, Hairy Beggarticks (hairy beggarticks; 16 g ai/ha): 35 | Plant response rating, Hairy Beggarticks (hairy beggarticks; 31 g ai/ha): 45 | Plant response rating, Hairy Beggarticks (hairy beggarticks; 125 g ai/ha): 50 | Plant response rating, Hairy Beggarticks (hairy beggarticks; 250 g ai/ha): 60 | Plant response rating, Italian Ryegrass (Italian ryegrass; 16 g ai/ha): 0 | Plant response rating, Italian Ryegrass (Italian ryegrass; 31 g ai/ha): 0 | Plant response rating, Italian Ryegrass (Italian ryegrass; 125 g ai/ha): 15 | Plant response rating, Italian Ryegrass (Italian ryegrass; 250 g ai/ha): 30 | Plant response rating, Corn (corn; 16 g ai/ha): 0 | Plant response rating, Corn (corn; 31 g ai/ha): 0 | Plant response rating, Corn (corn; 125 g ai/ha): 20 | Plant response rating, Corn (corn; 250 g ai/ha): 75 | Plant response rating, Southern Sandbur (southern sandbur; 16 g ai/ha): 0 | Plant response rating, Southern Sandbur (southern sandbur; 31 g ai/ha): 0 | Plant response rating, Southern Sandbur (southern sandbur; 125 g ai/ha): 10 | Plant response rating, Southern Sandbur (southern sandbur; 250 g ai/ha): 20 | Plant response rating, Smartweed (smartweed; 16 g ai/ha): 20 | Plant response rating, Smartweed (smartweed; 31 g ai/ha): 50 | Plant response rating, Smartweed (smartweed; 125 g ai/ha): 70 | Plant response rating, Smartweed (smartweed; 250 g ai/ha): 80 | Plant response rating, Dayflower, VA (dayflower, VA; 16 g ai/ha): 15 | Plant response rating, Dayflower, VA (dayflower, VA; 31 g ai/ha): 20 | Plant response rating, Dayflower, VA (dayflower, VA; 125 g ai/ha): 40 | Plant response rating, Dayflower, VA (dayflower, VA; 250 g ai/ha): 70 | Plant response rating, Fall Panicum (fall panicum [3]; 16 g ai/ha): 10 | Plant response rating, Fall Panicum (fall panicum [3]; 31 g ai/ha): 10 | Plant response rating, Fall Panicum (fall panicum [3]; 125 g ai/ha): 20 | Plant response rating, Fall Panicum (fall panicum [3]; 250 g ai/ha): 30

CCONC(=O)c1cc(CC)n(Cc2cccc(OC(F)(F)F)c2)n1 [Compound 72]
Plant response rating (scale of 0 to 100), Russian Thistle (Russian thistle; Preemergence, 250 g ai/ha): 95 | Russian Thistle plant response rating (Russian thistle; preemergence, 31 g ai/ha, scale 0 to 100 (0 no effect, 100 complete control), 13 to 15 days): 5 | Plant response rating, Russian Thistle (Russian thistle; preemergence, 62 g ai/ha, 13 to 15 days, scale 0 to 100, 0 = no effect, 100 = complete control): 90 | Russian Thistle plant response rating (Russian thistle; preemergence, 125 g ai/ha, scale 0 to 100, 0 is no effect, 100 is complete control): 95
